Measured values from ChEMBL document CHEMBL5233261, “Recent accomplishments on the synthetic/biological facets of pharmacologically active 1H-1,2,3-triazoles” (Eur J Med Chem, 2021).
In brackets after ≈: the same amount, converted by molar mass. Several values for one entry are separate records, joined by “and”; a condition that tells them apart may be missing. Identical values can stand only once.

Legend:
Pseudomonas aeruginosa [1] = experiment: Antibacterial activity against Pseudomonas aeruginosa assessed as bacterial growth inhibition incubated for 12 hrs by well plate assay; format: functional
Klebsiella pneumoniae = experiment: Antibacterial activity against Klebsiella pneumoniae assessed as bacterial growth inhibition incubated for 12 hrs by well plate assay; format: functional
[2] = test system: Staphylococcus epidermidis; experiment: Antibacterial activity against Staphylococcus epidermidis assessed as bacterial growth inhibition incubated for 12 hrs by well plate assay; format: functional
Staphylococcus aureus [3] = experiment: Antibacterial activity against Staphylococcus aureus assessed as bacterial growth inhibition incubated for 12 hrs by well plate assay; format: functional
[4] = test system: Staphylococcus epidermidis; experiment: Antibacterial activity against Staphylococcus epidermidis assessed as bacterial growth inhibition; format: functional
Bacillus subtilis [5] = experiment: Antibacterial activity against Bacillus subtilis assessed as bacterial growth inhibition; format: functional
Escherichia coli [6] = experiment: Antibacterial activity against Escherichia coli assessed as bacterial growth inhibition; format: functional
Pseudomonas aeruginosa [7] = experiment: Antibacterial activity against Pseudomonas aeruginosa assessed as bacterial growth inhibition; format: functional
Aspergillus niger = experiment: Antifungal activity against Aspergillus niger assessed as […] growth inhibition; format: functional
Candida albicans = experiment: Antifungal activity against Candida albicans assessed as […] growth inhibition; format: functional
Staphylococcus aureus [8] = experiment: Antibacterial activity against Staphylococcus aureus ATCC 6535 strain assessed as bacterial growth inhibition incubated for 24 hrs; format: functional
MCF7 [9] = experiment: Anticancer activity against human MCF7 cells assessed as cell growth inhibition incubated for 24 hrs by ELISA assay; format: functional, cell-based; conditions: MCF7, 24 h
HeLa [10] = experiment: Anticancer activity against human HeLa cells assessed as cell growth inhibition incubated for 72 hrs by MTT assay; format: functional, cell-based
MCF7 [11] = experiment: Anticancer activity against human MCF7 cells assessed as cell growth inhibition incubated for 72 hrs by MTT assay; format: functional, cell-based; conditions: MCF7, 72 h
MCF7 [12] = experiment: Anticancer activity against human MCF7 cells assessed as cell growth inhibition incubated for 24 hrs by MTT assay; format: functional, cell-based; conditions: MCF7, 24 h
A549 = experiment: Anticancer activity against human A549 cells assessed as cell growth inhibition incubated for 48 hrs by SRB assay; format: functional, cell-based; conditions: A549, 48 h
HCT-116 = experiment: Anticancer activity against human HCT-116 cells assessed as cell growth inhibition incubated for 48 hrs by SRB assay; format: functional, cell-based; conditions: HCT-116, 48 h
MCF7 [13] = experiment: Anticancer activity against human MCF7 cells assessed as cell growth inhibition incubated for 48 hrs by SRB assay; format: functional, cell-based; conditions: MCF7, 48 h
HT-29 = experiment: Anticancer activity against human HT-29 cells assessed as cell growth inhibition incubated for 48 hrs by SRB assay; format: functional, cell-based; conditions: HT-29, 48 h
Plasmodium falciparum [14] = experiment: Antimalarial activity against Plasmodium falciparum 3D7 strain incubated for 40 hrs by Giemsa staining based microscopic analysis; format: functional, organism-based; conditions: 3D7, 40 h
Plasmodium falciparum [15] = experiment: Antimalarial activity against Plasmodium falciparum RKL-2 strain incubated for 40 hrs by Giemsa staining based microscopic analysis; format: functional, organism-based; conditions: RKL-2, 40 h
[16] = test system: Mycobacterium tuberculosis; experiment: Antibacterial activity against Mycobacterium tuberculosis H37Rv ATCC 27294 strain assessed as bacterial growth inhibition by MABA Assay; format: functional
[17] = test system: Mycobacterium tuberculosis; experiment: Antibacterial activity against Mycobacterium tuberculosis H37Rv MTCC 200 strain assessed as bacterial growth inhibition; format: functional
DU-145 = experiment: Anticancer activity against human DU-145 cells assessed as cell growth inhibition by MTT assay; format: functional, cell-based
[18] = test system: Mycobacterium tuberculosis; experiment: Antibacterial activity against Mycobacterium tuberculosis H37Ra ATCC 25177 assessed as bacterial growth inhibition by XTT Reduction Menadione Assay; format: functional
HeLa [19] = experiment: Anticancer activity against human HeLa cells assessed as cell growth inhibition incubated for 48 hrs by MTT assay; format: functional, cell-based
[20] = test system: Mycobacterium tuberculosis; experiment: Antibacterial activity against Mycobacterium tuberculosis H37Rv strain assessed as bacterial growth inhibition incubated for 7 days by Resazurin Microtiter Assay; format: functional; conditions: 168 h, time 7 day
Bacillus subtilis [21] = experiment: Antibacterial activity against Bacillus subtilis assessed as bacterial growth inhibition incubated for 24 hrs by agar well diffusion assay; format: functional
Staphylococcus aureus [22] = experiment: Antibacterial activity against Staphylococcus aureus assessed as bacterial growth inhibition incubated for 24 hrs by agar well diffusion assay; format: functional
Escherichia coli [23] = experiment: Antibacterial activity against Escherichia coli assessed as bacterial growth inhibition incubated for 24 hrs by agar well diffusion assay; format: functional
[24] = test system: Mycobacterium tuberculosis; experiment: Antibacterial activity against Mycobacterium tuberculosis H37Rv strain assessed as bacterial growth inhibition by MABA Assay; format: functional, organism-based
[25] = Escherichia coli, read-out: MIC
[26] = Pseudomonas aeruginosa, read-out: MIC

How did the MIC (Pseudomonas aeruginosa [1]) turn out when `COc1ccccc1/N=C/c1c(OCc2cn(CCC[Si]34OCCN(CCO3)CCO4)nn2)ccc2ccccc12` was run?
The MIC was 106 µg/mL (≈ 185 µM).

What about the MIC (Klebsiella pneumoniae) of the same compound?
Its MIC is 106 µg/mL (≈ 185 µM).

And the MIC [2]?
Its MIC is 26.5 µg/mL (≈ 46.2 µM).

What about the MIC (Staphylococcus aureus [3]) of the same compound?
Its MIC is 26.5 µg/mL (≈ 46.2 µM).

Which MIC ([4]; Staphylococcus epidermidis, read-out: MIC) does the source give for `Cc1cc(O)c(C(=O)/C=C/c2ccc(OCc3cn(Cc4ccc(Br)cc4)nn3)cc2)c(=O)o1` here?
Its MIC is 3 µM (≈ 1.57 µg/mL).

What about the MIC (Bacillus subtilis [5]; Bacillus subtilis, read-out: MIC) of the same compound?
Its MIC is 3 µM (≈ 1.57 µg/mL).

And the MIC (Escherichia coli [6]; [25])?
The MIC was 3 µM.

What about the MIC (Pseudomonas aeruginosa [7]; [26]) of the same compound?
Its MIC is 3 µM.

And the MIC (Aspergillus niger; Aspergillus niger, read-out: MIC)?
The MIC was 3 µM (≈ 1.57 µg/mL).

And the MIC (Candida albicans; Candida albicans, read-out: MIC)?
Its MIC is 3 µM (≈ 1.57 µg/mL).

Which results are given for `COc1ccc2nc(Cl)c(C(=O)NCc3cn(C(=O)c4ccc(F)cc4)nn3)cc2c1`?
MIC (Escherichia coli [6]; [25]): 6.25 µg/mL; MIC (Pseudomonas aeruginosa [7]; [26]): 6.25 µg/mL

`CCOP(=O)(CCCn1cc(Cn2cnc3ccccc3c2=O)nn1)OCC` was tested. Which MIC (Staphylococcus aureus [8]) did it give?
The MIC was 0.625 µg/mL (≈ 1.54 µM).

With `COc1cc2ncnc(Nc3ccc(Cn4cc(-c5ccccc5)nn4)cc3)c2cc1OC` as the compound, how does the IC50 (MCF7 [9]) read?
Its IC50 is 20.7 µM.

What does the source list for `Cc1ccc(-n2cc(CSc3nnc(C(C)c4ccc(CC(C)C)cc4)o3)nn2)c(C)c1` (stereo unspecified)?
IC50 (HeLa [10]): 27.5 µg/mL (≈ 61.4 µM); IC50 (MCF7 [11]): 31 µg/mL (≈ 69.3 µM)

Which MIC (Pseudomonas aeruginosa [7]; [26]) does the source give for `NC(=O)N/N=C/c1ccc(OCc2cn(-c3ccc(F)cc3)nn2)cc1` here?
Its MIC is 35.3 µM.

What does the source list for `O=C(Cn1cc(-c2cccc(F)c2)nn1)Nc1ccc(F)cc1`?
MIC [4]: 0.0199 umol/cm3; MIC (Bacillus subtilis [5]): 0.0199 umol/cm3; MIC (Escherichia coli [6]): 0.0199 umol/cm3; MIC (Pseudomonas aeruginosa [7]): 0.0199 umol/cm3; MIC (Aspergillus niger): 0.0199 umol/cm3; MIC (Candida albicans): 0.0199 umol/cm3

How did the IC50 (MCF7 [12]) turn out when `O=C1C(=O)N(CCCCn2cc(COCCOc3ccc(/C(=C(/CCCl)c4ccccc4)c4ccccc4)cc3)nn2)c2c(Br)cc(Br)cc21` was run?
Its IC50 is 11 µM.

How did the IC50 (A549) turn out when `Cc1ccc(-c2nn(-c3ccccc3)cc2/C=C/C(=O)OCc2cn(-c3ccc([N+](=O)[O-])cc3)nn2)cc1` was run?
The IC50 was 1960 nM.

What about the IC50 (HCT-116) of the same compound?
Its IC50 is 3.59 µM.

And the IC50 (MCF7 [13])?
The IC50 was 1760 nM.

What about the IC50 (HT-29) of the same compound?
The IC50 was 4.49 µM.

How did the IC50 (Plasmodium falciparum [14]) turn out when `C#CCCO[C@@H]1O[C@@H]2O[C@]3(C)CC[C@H]4[C@H](C)CC[C@@H]([C@H]1C)[C@@]24OO3` was run?
The IC50 was 0.215 µg/mL (≈ 0.639 µM).

What about the IC50 (Plasmodium falciparum [15]) of the same compound?
The IC50 was 8 µg/mL (≈ 23.8 µM).

For `COc1ccc(Cn2cc(CNC(=O)c3cc4cc(OC)ccc4nc3Cl)nn2)cc1`, which MIC [16] is on record?
The MIC was 1.6 µg/mL (≈ 3.65 µM).

`O=C(Cn1cc(-c2ccccc2)nn1)Nc1ccccc1` was tested. Which MIC [17] did it give?
The MIC was 0.0898 umol/cm3.

For `COc1ccc2nc(Cl)c(C(=O)NCc3cn(Cc4ccc(C#N)cc4)nn3)cc2c1`, which MIC [16] is on record?
Its MIC is 1.6 µg/mL (≈ 3.7 µM).

With `COc1cc([C@H]2c3cc4c(cc3[C@H](OCc3cn([C@@H]5O[C@H](COC(C)=O)[C@@H](OC(C)=O)[C@H](OC(C)=O)[C@H]5OC(C)=O)nn3)[C@@H]3COC(=O)[C@@H]23)OCO4)cc(OC)c1OC` as the compound, how does the IC50 (DU-145) read?
Its IC50 is 1020 nM.

Which MIC [18] does the source give for `CC(=O)Nc1ccc(N2C=C(C(c3c[nH]c4ccc(Br)cc34)c3c[nH]c4ccc(Br)cc34)NN2)cc1` here?
Its MIC is 3 µg/mL and 1 µg/mL.

How did the IC50 (HeLa [19]) turn out when `Cc1ccc(Cn2cc(CN3C(=O)C4(C(C#N)=C(N)Oc5cc6c(cc54)[nH]c4ccccc46)c4cc(F)ccc43)nn2)cc1` (stereo unspecified) was run?
Its IC50 is 3.35 µM.

`Cc1cc(=O)oc2cc(OCc3cn(CCCCCCCCn4cc(COc5cc6oc(=O)cc(C)c6cc5Cl)nn4)nn3)c(Cl)cc12` was tested. Which MIC [20] did it give?
The MIC was 1.56 µg/mL (≈ 2.25 µM).

And the “inhibition zone (IZ)” value (Bacillus subtilis [21])?
Its value is 19 mm.

What about the “inhibition zone (IZ)” value (Staphylococcus aureus [22]) of the same compound?
The value was 16 mm.

What about the “inhibition zone (IZ)” value (Escherichia coli [23]) of the same compound?
Its value is 14 mm.

How did the IC50 [24] turn out when `O=c1c(Cn2cc(CCCCCCCCCCCCCCCO)nn2)coc2ccccc12` was run?
Its IC50 is 1.56 µg/mL (≈ 3.44 µM).

With `COc1ccc2nc(Cl)c(C(=O)NCc3cn(CC(=O)c4ccc(F)cc4)nn3)cc2c1` as the compound, how does the MIC [16] read?
The MIC was 1.6 µg/mL (≈ 3.53 µM).

`Cc1cc(=O)oc2cc(OCc3cn(CCCCCCn4cc(COc5cc6oc(=O)cc(C)c6cc5Cl)nn4)nn3)c(Cl)cc12` was tested. Which MIC [20] did it give?
The MIC was 1.56 µg/mL (≈ 2.34 µM).

And the “inhibition zone (IZ)” value (Bacillus subtilis [21])?
Its value is 19 mm.

And the “inhibition zone (IZ)” value (Staphylococcus aureus [22])?
Its value is 16 mm.

And the “inhibition zone (IZ)” value (Escherichia coli [23])?
Its value is 14 mm.
